In one series the target is T1, aromatase (Homo sapiens, UniProt P11511).
T1 sequence (P11511 1-503): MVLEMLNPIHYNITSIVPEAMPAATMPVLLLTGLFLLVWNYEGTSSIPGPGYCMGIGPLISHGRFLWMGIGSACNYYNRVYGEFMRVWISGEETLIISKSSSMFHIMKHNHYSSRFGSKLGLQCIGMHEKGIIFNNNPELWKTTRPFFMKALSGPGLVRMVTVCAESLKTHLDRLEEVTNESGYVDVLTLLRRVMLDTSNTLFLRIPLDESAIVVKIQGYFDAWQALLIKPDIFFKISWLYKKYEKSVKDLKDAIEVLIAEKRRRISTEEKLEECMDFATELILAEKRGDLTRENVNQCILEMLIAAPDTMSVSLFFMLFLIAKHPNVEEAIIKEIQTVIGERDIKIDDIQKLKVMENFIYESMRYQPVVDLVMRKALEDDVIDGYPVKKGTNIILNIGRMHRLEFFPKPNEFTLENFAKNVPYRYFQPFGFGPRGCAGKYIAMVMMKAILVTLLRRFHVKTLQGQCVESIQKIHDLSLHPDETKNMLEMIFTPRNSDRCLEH
Conditions: in vitro; cited from earlier work.

Series [1] can be described thus: Novel location recognition test (NOL), spatial recognition memory in rats subjected to CMF chemotherapy. Type of series: in vivo, Wistar female rats. Conditions: CMF-treated rats, cotinine 5 mg/kg oral. The method, then: Wistar female rats (2-4 months of age, 200-300 g) (n=10/group) were obtained from Harlan laboratories. Rats were housed in pairs, kept at 12 h light/12 h dark cycle and maintained in an air-conditioned room at a temperature of 21±1° C. and relative humidity of 60±10%. Food and water were available ad libitum. All rats were acclimated to the Veterinary Medical Unit for 1 week and handled daily. Weight was recorded every 2 days to assess for dehydration induced by the chemotherapy regime. All procedures were approved by the Institutional Animal Care and Use (IACUC) committee of the Bay Pines Veterans Affairs (VA) Healthcare System, in accordance with VA and The Guide for the Care and Use of Laboratory Animals. […]
This task evaluates spatial recognition memory and is based on the preferential exploration of a displaced object by rodents able to detect a novel placement of an object after remembering each object's original positions (Ennaceur A, Delacour J (1988) A new one-trial test for neurobiological studies of memory in rats. 1: Behavioral data. Behav Brain Res 31(1):47-59). […] The discrimination index (DI), which is a measure of spatial recognition memory, was calculated as follows: time spent exploring the object in the new location/total time spent exploring both objects.
Differences among the means were analyzed using one-way analysis of variance (ANOVA). […]

The conditions of series [2]: clinical studies, doses up to 1.5 mg cotinine base/kg; cited from earlier work.
The test system of another series is monocytes. Conditions: α7nAChR-dependent; cited from earlier work.
A short description of series [3]: Weight gain in rats subjected to CMF chemotherapy. Format: in vivo, Wistar female rats. The method, then: Wistar female rats (2-4 months of age, 200-300 g) (n=10/group) were obtained from Harlan laboratories. Rats were housed in pairs, kept at 12 h light/12 h dark cycle and maintained in an air-conditioned room at a temperature of 21±1° C. and relative humidity of 60±10%. Food and water were available ad libitum. All rats were acclimated to the Veterinary Medical Unit for 1 week and handled daily. Weight was recorded every 2 days to assess for dehydration induced by the chemotherapy regime. All procedures were approved by the Institutional Animal Care and Use (IACUC) committee of the Bay Pines Veterans Affairs (VA) Healthcare System, in accordance with VA and The Guide for the Care and Use of Laboratory Animals. Following the habituation period, rats were divided into 4 groups (n=6-12/condition) and treated with warm saline (vehicle) or a combination of cyclophosphamide (40 mg/kg), methotrexate (37.5 mg/kg) and 5-fluorouracil (75 mg/kg) (CMF) via intraperitoneal (i.p. or IP) injection once a week for 2 weeks, the shortest time inducing cognitive impairment in the rats. […] Differences among the means were analyzed using one-way analysis of variance (ANOVA). […]

In another series the test system is 17-ketosteroid reductase. The settings on record: in vitro; cited from earlier work.
The test system of a further series is Salmonella. Conditions: 0-1000 μg/plate; cited from earlier work.

Consider `CN1C(=O)CC[C@H]1c1cccnc1` [cotinine, (5S)-1-methyl-5-(3-pyridyl) pyrrolidin-2-one], for which the inhibition of aromatase result at aromatase is on record as “inhibiting”. Besides, the “ability to discriminate between old and new location of objects (discrimination index)” value in series [1] is “restored the ability”. In series [1] (p>0.05), the “location discrimination level compared with control rats” value is on record as “indistinguishable from control rats”. In addition, in series [2], the “recall of a short list” value is “did not affected the recall” and the “recall on the long list on a verbal recall task” value is “impaired recall”. Also, the “inflammatory response to gram-negative bacteria (expression of TNF-α, IL-1β and IL-6)” value with monocytes is “reduced the inflammatory response”. For the same compound, in series [3] (CMF-treated rats, cotinine 5 mg/kg oral daily from 3 days after chemotherapy, vs chemotherapy-treated control rats p<0.05), the “recovery of weight gain after chemotherapy” value is on record as “enhanced the recovery of weight gain”. Also, the “weight levels reached compared with vehicle-treated rats” value in series [3] (cotinine 5 mg/kg oral daily, 30 days of experiments) was “indistinguishable from the vehicle-treated rats”. In addition, the “inhibition of 17-ketosteroid reductase” value in the series on 17-ketosteroid reductase was “inhibiting”. In the series with Salmonella, the “genotoxic effects, Salmonella mutagenicity” value was “no genotoxic effects”.

The record behind these values is patent publication US10307411B2, “Use of cotinine in treating or preventing neurogenesis deficits and enhancing neurogenesis” (Department of Veterans Affairs, priority 2014, dated 2019).
